Measured values reported in patent US11440932B2, “Surfactant compounds-clips for extraction and stabilization in solution of membrane proteins” (CENTRE NATIONAL DE LA RECHERCHE SCIENTIFIQUE, priority 2017, dated 2022).

Legend:
[1] = Critical micelle concentration (CMC) by DPH fluorescence; type: physicochemical; conditions: for CMC: 50 mM tris-HCl, pH 8.0
[2] = Diameter of micelles by dynamic light scattering (DLS); type: physicochemical; conditions: for Ø, nm: estimated micelle diameter by DLS, 30 mM tris-HCl, pH 8.0
Experimental: FIG. 5 depicts the dynamic light scattering (DLS) of clips, in intensity (%, column A on the left) and in number (%, column B on the right), as a function of the […] (nm). The estimated diameters are indicated on each panel (column A). Columns A and B, from top to bottom: compound 3.7c (10 mM, 5×CMC), compound 3.7d (10 mM, 5×CMC), compound 3.7e (2 mM, […]), compound 3.7f (10 mM, 500×CMC), compound 3.7h (1 mM, 100×CMC), compound 3.7j (2 mM, 100×CMC), compound 3.9a (1 mM, 50×CMC).
Another physicochemical parameter of the micelles of detergents is their diameter, assuming that they are spherical. This dimension is obtained by the light scattering (DLS) technique.
Procedure. The molecules of the invention tested were prepared in a range of concentrations extending from 0.1 to 1000×CMC in 30 mM tris-HCl, pH 8.0 and neutralized at this pH. The solutions are filtered on 0.22 μm. The measurement is carried out on 100 μl, in triplicate on a Zetasizer Nano-S from Malvern Instruments.

AcrB = biological target: T1, AcrB (Escherichia coli, UniProt P31224); experiment: Extraction of AcrB from membranes (SDS-PAGE of supernatant); set-up: species or system bacterial; same expression system (E. coli C41DE3); conditions: detergent 10 g/l unless indicated otherwise; 2 h at 4° C.
T1 construct: made in house; host or cells: E. coli C41(DE3)
T1 sequence (P31224 whole entry): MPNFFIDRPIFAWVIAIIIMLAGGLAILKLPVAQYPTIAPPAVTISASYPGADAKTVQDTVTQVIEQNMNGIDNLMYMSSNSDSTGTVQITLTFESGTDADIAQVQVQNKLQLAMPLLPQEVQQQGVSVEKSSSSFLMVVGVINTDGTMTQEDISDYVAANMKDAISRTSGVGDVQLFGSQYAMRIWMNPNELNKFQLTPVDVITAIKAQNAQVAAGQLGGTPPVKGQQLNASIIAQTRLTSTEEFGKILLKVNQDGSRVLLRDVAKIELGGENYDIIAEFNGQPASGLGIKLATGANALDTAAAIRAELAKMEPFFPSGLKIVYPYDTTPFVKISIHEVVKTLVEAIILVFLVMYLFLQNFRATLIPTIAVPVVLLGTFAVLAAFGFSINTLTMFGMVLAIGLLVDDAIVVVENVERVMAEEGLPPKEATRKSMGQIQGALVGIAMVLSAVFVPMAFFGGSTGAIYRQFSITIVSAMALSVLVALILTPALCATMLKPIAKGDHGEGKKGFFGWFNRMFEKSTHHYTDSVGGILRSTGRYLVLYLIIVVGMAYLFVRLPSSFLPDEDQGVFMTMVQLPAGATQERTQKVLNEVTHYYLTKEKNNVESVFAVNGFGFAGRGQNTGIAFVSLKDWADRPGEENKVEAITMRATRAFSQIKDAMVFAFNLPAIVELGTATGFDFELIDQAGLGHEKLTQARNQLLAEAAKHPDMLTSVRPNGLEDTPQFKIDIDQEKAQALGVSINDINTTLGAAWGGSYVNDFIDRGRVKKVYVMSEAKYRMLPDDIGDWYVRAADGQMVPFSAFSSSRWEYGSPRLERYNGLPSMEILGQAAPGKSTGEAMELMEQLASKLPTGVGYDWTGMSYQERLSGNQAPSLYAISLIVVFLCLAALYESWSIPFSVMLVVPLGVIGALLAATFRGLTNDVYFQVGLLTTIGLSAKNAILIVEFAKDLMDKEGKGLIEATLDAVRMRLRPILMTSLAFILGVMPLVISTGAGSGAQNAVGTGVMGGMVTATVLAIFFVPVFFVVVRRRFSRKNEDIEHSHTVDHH
Outline: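 E. coli C41(DE3) membranes overexpressing BmrA (~25% of protein) or AcrB (~20%), at 2 g/l protein in 20 mM Tris-HCl pH 8.0, 100 mM NaCl, 15% glycerol with protease inhibitors, treated with detergent at 10 g/l unless stated otherwise for 2 h at 4° C. After 100 000×g centrifugation, 20 μg supernatant protein run on 10% SDS-PAGE, Coomassie-stained.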

SMILES | CMC [1] | Ø, nm [2] | extraction of AcrB (AcrB) | CMC (breakage in the slope of DPH fluorescence, FIG. 4) ([1]; triplicates) | estimated diameter ([2]; DLS)
CCCCCCCCCCCCCC(=O)N[C@@H](COCc1cn(CCO[C@@H]2OC(CO)[C@@H](O)C(O)C2O)nn1)C(=O)N[C@H](CCC(=O)O)C(=O)O (stereo partly shown) [Compound 3.7c] | 1 mM | 3.8 nm | extracting | – | –
CCCCCCCCCCCCCC(=O)N[C@@H](COCc1cn(CCOCCOCCOCCOCCOCCOC)nn1)C(=O)N[C@H](CCC(=O)O)C(=O)O [Compound 3.7g] | 1 mM | – | – | – | –
CCCCCCCCCCCCCC(=O)N[C@@H](COCc1cn(CCO[C@@H]2OC(CO)[C@@H](O[C@H]3OC(CO)[C@@H](O)C(O)C3O)C(O)C2O)nn1)C(=O)N[C@H](CCC(=O)O)C(=O)O (stereo partly shown) [Compound 3.7e] | 2 mM | 3.5 nm | extracting | 2 mM | –
CCCCCCCCCCCCCC(=O)N[C@@H](COCc1cn(CCO[C@@H]2OC(CO)[C@@H](O)C(O)C2O)nn1)C(=O)N[C@@H](CCC(=O)O)C(=O)NCC(=O)O (stereo partly shown) [Compound 3.7l] | 1 mM | – | extracting | – | –
CCCCCCCCCCCC(=O)N[C@@H](COCc1cn(CCO[C@@H]2OC(CO)[C@@H](O)C(O)C2O)nn1)C(=O)N[C@H](CCC(=O)O)C(=O)O (stereo partly shown) [Compound 3.7b] | 1.5 mM | – | do not extract | – | –
CCCCCCCCCCCCC(CCCCCCCCCCCC)C(=O)N[C@@H](COCc1cn(CCO[C@@H]2OC(CO)[C@@H](O)C(O)C2O)nn1)C(=O)N[C@H](CCC(=O)O)C(=O)O (stereo partly shown) [Compound 3.7j] | 0.02 mM | 60 nm | extracting | – | ~60 nm
